Tested on: CYSLTR2^L129Q
Test: IP1 accumulation assay in transiently transfected HEK293T cells
Assay type: cell-based, human
Conditions: 24-hour treatment
Experimental: Cells were treated with YM at increasing doses for 24 hours. Error bars, s.e.m. from three biological replicates, each with three technical replicates.
Exogenous Gene Expression. HEK293T cells were transiently transfected to express vectors containing synthetic CYSLTR2 (Moore A R, et al., Nat Genet. 48(6):675 (2016)) and GNAQ. Genewiz was used to codon optimize these sequences for expression in mammalian cells. The human GNAQ α-subunit plasmids encoding for GNAQ mutants Q209L, R183Q and G48V were generated by Quick Change (Agilent Technologies, Santa Clara, Calif.) site-directed mutagenesis. […]
IP1 Accumulation Assay. IP1 concentrations in GNAQ-transfected HEK293T cells, GNAQ-expressing melan-a cells and uveal melanoma cells was measured using a competitive homogenous time resolved fluorescence (HTRF) assay (CisBio, Bedford, Mass.). […] Following incubation, cells were lysed by adding 3 μL/well of d2-labeled IP1 analogue as the fluorescence acceptor and the Terbium cryptate-labeled anti-IP1 mAb as the fluorescence donor, diluted in the kit-supplied lysis buffer. The plates were incubated overnight at RT and time-resolved fluorescence signals were read using the BioTek Synergy NEO plate reader (BioTek Instruments, Winooski, Vt.) at 620 nm and 655 nm. […] Dose-response curves and bar graphs were analyzed using GraphPad Prism 7.0 software. […]

YM-254890
potency of inhibition of IP1 accumulation: subnanomolar potency
